This is an account of results in US20250092002A1, “FLUORINATED CATIONIC LIPIDS FOR USE IN LIPID NANOPARTICLES” (Acuitas Therapeutics, Inc., priority 2021, published 2025).

Molecules are shown by their SMILES.

Data set [1] can be described thus: Determination of pKa of formulated lipids (TNS fluorescence assay in lipid nanoparticles). Type of data set: physicochemical. Particulars: probe 2-(p-toluidino)-6-napthalene sulfonic acid (TNS), 1 µM final, cationic lipid formulated in lipid nanoparticles (cationic lipid/DSPC/cholesterol/PEG-lipid 47.5/10/40.7/1.8 mol %), read-out: pKa. The protocol:
As described elsewhere, the pKa of formulated cationic lipids is correlated with the effectiveness of LNPs for delivery of nucleic acids (see Jayaraman et al, Angewandte Chemie, International Edition (2012), 51(34), 8529-8533; Semple et al, Nature Biotechnology 28, 172-176 (2010)). The preferred range of pKa is ˜5 to ˜7. The pKa of each cationic lipid was determined in lipid nanoparticles using an assay based on fluorescence of 2-(p-toluidino)-6-napthalene sulfonic acid (TNS). Lipid nanoparticles comprising cationic lipid/DSPC/cholesterol/PEG-lipid (47.5/10/40.7/1.8 mol %) in PBS at a concentration of 0.4 mM total lipid were prepared using the in-line process as described in Example 1. TNS was prepared as a 100 μM stock solution in distilled water. Vesicles were diluted to 24 μM lipid in 2 mL of buffered solutions containing, 10 mM HEPES, 10 mM MES, 10 mM ammonium acetate, 130 mM NaCl, where the pH ranged from 2.5 to 11. An aliquot of the TNS solution was added to give a final concentration of 1 μM and following vortex mixing fluorescence intensity was measured at room temperature in a SLM Aminco Series 2 Luminescence Spectrophotometer using excitation and emission wavelengths of 321 nm and 445 nm. A sigmoidal best fit analysis was applied to the fluorescence data and the pKa was measured as the pH giving rise to half-maximal fluorescence intensity.

Data set [2] concerns luciferase expression in the liver. Briefly: In vivo luciferase mRNA expression rodent model (liver luciferase after tail vein injection of mRNA-LNP). Set-up: species or system mice. As to conditions: tail vein injection, liver 4 hours after administration. The protocol: Lipid nanoparticles were prepared and tested according to the general procedures described in PCT Pub. Nos. WO 2015/199952 and WO 2017/004143, the full disclosures of which are incorporated herein by reference. Briefly, cationic lipid, DSPC, cholesterol and PEG-lipid were solubilized in ethanol at a molar ratio of about 50:10:38.5:1.5 or about 47.5:10:40.7:1.8. Lipid nanoparticles (LNP) were prepared at a total lipid to mRNA weight ratio of approximately 10:1 to 40:1. The mRNA is diluted to 0.2 mg/mL in 10 to 50 mM citrate or acetate buffer, pH 4. Syringe pumps were used to mix the ethanolic lipid solution with the mRNA aqueous solution at a ratio of about 1:5 to 1:3 (vol/vol) with total flow rates above 15 mL/min. The ethanol was then removed and the external buffer replaced with PBS by dialysis. Finally, the lipid nanoparticles were filtered through a 0.2 µm pore sterile filter. Lipid nanoparticle particle size was approximately 55-95 nm diameter, and in some instances approximately 70-90 nm diameter as determined by quasi-elastic light scattering using a Malvern Zetasizer Nano ZS (Malvern, UK).
Studies were performed in 6-8 week old female C57BL/6 mice (Charles River) or 8-10 week old CD-1 (Harlan) mice (Charles River) according to guidelines established by an institutional animal care committee (ACC) and the Canadian Council on Animal Care (CCAC). Varying doses of mRNA-lipid nanoparticle were systemically administered by tail vein injection and animals euthanized at a specific time point (e.g., 4 hours) post-administration. Liver and spleen were collected in pre-weighed tubes, weights determined, immediately snap frozen in liquid nitrogen and stored at −80° C. until processing for analysis.
For liver, approximately 50 mg was dissected for analyses in a 2 mL FastPrep tubes (MP Biomedicals, Solon OH). ¼″ ceramic sphere (MP Biomedicals) is added to each tube and 500 μL of Glo Lysis Buffer—GLB (Promega, Madison WI) equilibrated to room temperature is added to liver tissue. Liver tissues were homogenized with the FastPrep24 instrument (MP Biomedicals) at 2×6.0 m/s for 15 seconds. Homogenate was incubated at room temperature for 5 minutes prior to a 1:4 dilution in GLB and assessed using SteadyGlo Luciferase assay system (Promega). Specifically, 50 μL of diluted tissue homogenate was reacted with 50 μL of SteadyGlo substrate, shaken for 10 seconds followed by 5 minute incubation and then quantitated using a CentroXS^3 LB 960 luminometer (Berthold Technologies, Germany). The amount of protein assayed was determined by using the BCA protein assay kit (Pierce, Rockford IL). Relative luminescence units (RLU) were then normalized to total μg protein assayed. To convert RLU to ng luciferase a standard curve was generated with QuantiLum Recombinant Luciferase (Promega).
The FLuc mRNA (L-6107 or L-7202) from Trilink Biotechnologies will express a luciferase protein, originally isolated from the firefly, Photimus pyralis. FLuc is commonly used in mammalian cell culture to measure both gene expression and cell viability. It emits bioluminescence in the presence of the substrate, luciferin. This capped and poly-adenylated mRNA was fully substituted with respect to uridine and/or cytidine nucleosides.
Representative compounds of the disclosure shown in Table 2 were formulated using the following molar ratio: 50% cationic lipid/10% distearoylphosphatidylcholine (DSPC)/38.5% Cholesterol/1.5% PEG lipid 2-[2-(ω-methoxy(polyethyleneglycol2000)ethoxy]-N,N-ditetradecylacetamide) or 47.5% cationic lipid/10% DSPC/40.7% Cholesterol/1.8% PEG lipid. Relative activity was determined by measuring luciferase expression in the liver 4 hours following administration via tail vein injection as described in Example 1. The activity was compared at a dose of 1.0 or 0.5 or 0.3 mg mRNA/kg and expressed as ng luciferase/g liver measured 4 hours after administration, as described in Example 1. Compound numbers in Table 2 refer to the compound numbers of Table 1. […]

For orientation: pKa means the pH at which an ionisable group is half protonated.

In the case of `CCCCCCC(CCCC)COC(=O)CCCCCC(CCCCCC(=O)OCC(CCCC)CCCCCC)N(CCCCN(C)C)C(=O)C(F)(F)C(F)(F)C(F)(F)C(F)(F)C(F)(F)C(F)(F)C(F)(F)F` (stereo not shown) [Compound I-10, BIS(2-BUTYLOCTYL) 7-(N-(4-(DIMETHYLAMINO)BUTYL)-2,2,3,3,4,4,5,5,6,6,7,7,8,8,8-PENTADECAFLUOROOCTANAMIDO)TRIDECANEDIOATE], the pKa in data set [1] is 6.18. Moreover, in data set [2] (0.5 mg mRNA/kg), the “Liver Luc @ 0.5 mg/kg (ng luc/g liver)” value is listed as 62 ± 44 ng luc/g liver.

For `CCCCCCCCCCN(C(=O)C(F)CCCN(C)C)C(CCCCCCCCC(=O)OCC(CCCC)CCCCCC)CCCCCCCCC(=O)OCC(CCCC)CCCCCC` (stereo not shown) [Compound I-24, BIS(2-BUTYLOCTYL) 10-(N-DECYL-5-(DIMETHYLAMINO)-2-FLUOROPENTANAMIDO)NONADECANEDIOATE], in data set [1], the pKa came out at 6.04. Further, in data set [2] (0.3 mg/kg (footnote *)), the “Liver Luc (ng luc/g liver), determined at 0.3 mg/kg” value was determined as 9411 ± 1733 ng luc/g liver.
